Values of other authors in patent US20210275558A1, “METHODS FOR TREATING, PHARMACEUTICAL COMPOSITIONS AND USES THEREOF” (Boehringer Ingelheim International GmbH, priority 2018, published 2021).

How the values were obtained:
[1] = crystalline form
[2] = tested on: patients with type 2 diabetes mellitus and high cardiovascular risk
[3] = in vivo
[4] = secondary outcomes analyses, patients with type 2 diabetes and established cardiovascular disease

OC[C@H]1O[C@@H](c2ccc(Cl)c(Cc3ccc(O[C@H]4CCOC4)cc3)c2)[C@H](O)[C@@H](O)[C@@H]1O [empagliflozin, 1-chloro-4-(β-D-glucopyranos-1-yl)-2-[4-((S)-tetrahydrofuran-3-yloxy)-benzyl]benzene]
solubility [1]: good solubility properties
stability [1]: physico-chemically stable
reflex-mediated sympathetic activation ([2]; in contrast to increases observed with diuretics): not being associated with clinically relevant reflex-mediated sympathetic activation
blood pressure and heart rate ([2]; in vivo): blood pressure reductions without clinically relevant changes of the heart rate
risk of cardiovascular death, hospitalization for heart failure and overall mortality ([2]; patients with type 2 diabetes mellitus and high cardiovascular risk): reduced the risk of cardiovascular death, hospitalization for heart failure and overall mortality
progression of kidney disease [2, 4]: slowed progression of kidney disease
risk for clinically relevant kidney events (inclusive end-stage kidney disease) [2, 4]: reduced the risk for clinically relevant kidney events
diuretic, arterial stiffness and vascular effects [3]: diuretic effect, reduced arterial stiffness and direct vascular effects
